Reference: PMC6095626, “Screening of the Pathogen Box for inhibitors with dual efficacy against Giardia lamblia and Cryptosporidium parvum” (PLoS Neglected Tropical Diseases, 2018)

Experiments:
[1] = system: G. lamblia trophozoites (luciferase expressing, WBC6); assay: microbe, parasite or virus in culture; assay type: cell-based, Giardia lamblia; conditions: initial Pathogen Box screen, single concentration 16 µM, inhibition compared to DMSO wells
Outline: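 Luciferase-expressing WBC6 trophozoites plated at 250,000 cells/mL, compounds added 1:1, incubated anaerobically (GasPak bags) at 37 °C for 24 h; viability read by bioluminescence, with duplicate plates counted on a MOXI Z cell counter. Metronidazole control serially diluted 1:2 from 40 μM.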

[2] = system: C. parvum (UGA1 Nluc expressing strain in HCT-8 cells); assay: microbe, parasite or virus in culture; assay type: cell-based, Cryptosporidium parvum; conditions: initial Pathogen Box screen, single concentration 10 µM, inhibition compared to DMSO wells
Outline: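 HCT-8 monolayers grown 48 h to 90–100% confluence, treated with compound at 10 μM or serial dilutions, then infected with bleach-treated UGA1 Nluc C. parvum oocysts.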

| Structure (SMILES) | Giardia (16 uM) Mean % inhibition [1] | Crypto (10 uM) Mean % inhibition [2] |
| --- | --- | --- |
| CCn1cnc2c(Nc3cc(F)cc(F)c3)nc(C#N)nc21 [MMV676881] | 9% | 53% |
| NC(=O)c1cc(-c2ccsc2)ccc1OCCOc1ccccc1 [MMV687138] | X* (Mean or standard deviation are negative but not significantly different from the control to be a growth promoter) | X* (Mean or standard deviation are negative but not significantly different from the control to be a growth promoter) |
| CCCCS(=O)(=O)Nc1ccc2cnn(C)c2c1 [MMV687145] | 56% | 32% |
| Cc1cc(C)c2cc(C(=O)NC3CCCCCCC3)[nH]c2c1 [MMV687146] | 15% | 33% |
| COc1ccc(Cn2cnc3c(-c4ccco4)nc(Cl)nc32)cc1 [MMV687170] | 40% | 77% |
| O=C(C1CCN(c2cc(-n3cccc3)ncn2)CC1)N1CCc2ccccc2C1 [MMV687172] | X* (Mean or standard deviation are negative but not significantly different from the control to be a growth promoter) | 48% |
| CCc1ccc([C@@H]2C[C@H](C(F)(F)F)n3ncc(C(=O)NCc4ccc(OC)cc4)c3N2)cc1 [MMV687180] | 23% | X* (Mean or standard deviation are negative but not significantly different from the control to be a growth promoter) |
| COc1ccc2nc(C)cc(OCC(=O)Nc3ccccc3OC)c2c1 [MMV687188] | 28% | 38% |
| COc1ccc2nc(C)cc(OCC(=O)NCc3ccccc3)c2c1 [MMV687189] | 16% | 23% |
| CC(C)(C(=O)Nc1ccc(F)cc1)n1cc(-c2ccccc2F)cn1 [MMV687239] | 39% | 59% |
| NC(=O)c1cc(Br)ccc1OCCOc1ccccc1 [MMV687243] | 66% | 77% |
| CN1CCN(S(=O)(=O)c2ccc(-c3ccc4c(Nc5ccc6n[nH]nc6c5)ccnc4c3)cc2)CC1 [MMV687246] | 30% | X* (Mean or standard deviation are negative but not significantly different from the control to be a growth promoter) |
| Nc1nc2cc(-c3cncc(Oc4ccc(F)cc4)c3)ccc2[nH]1 [MMV687248] | 22% | 72% |
| Cn1c(=O)c2c(S(C)(=O)=O)snc2n(C)c1=O [MMV687251] | 7.44% | 76% |
| CCCCc1ccc(C(=O)Nc2nccc3ccccc23)nc1 [MMV687254] | X* (Mean or standard deviation are negative but not significantly different from the control to be a growth promoter) | 77% |
| CC(C)=CCC/C(C)=C\CNCCNC1C2CC3CC(C2)CC1C3 (centres unmarked) [MMV687273] | 89% | 35% |
| CCc1nc2ccc(Cl)cn2c1C(=O)NCc1ccc(N2CCC(c3ccc(OC(F)(F)F)cc3)CC2)cc1 [MMV687696] | 26% | 21% |
| O=C(NCc1cc(Cl)cc(Cl)c1)c1c(C(F)(F)F)nc2ccccn12 [MMV687699] | 16% | 32% |
| Nc1ncnc2c1ncn2[C@@H]1O[C@H](COS(=O)(=O)NC(=O)c2ccccc2O)[C@@H](O)[C@H]1O [MMV687700] | 15% | X* (Mean or standard deviation are negative but not significantly different from the control to be a growth promoter) |
| COc1cccc(-c2nc3c(N4CCCC4)cccc3n2CC2CCCN2)n1 (centres unmarked) [MMV687703] | 26% | 77% |
| c1ccc(Oc2ccc(-c3cc(N4CCNCC4)[nH]n3)cc2)cc1 [MMV687706] | 30% | X* (Mean or standard deviation are negative but not significantly different from the control to be a growth promoter) |
| O=C1O[C@@H](CO)CN1c1cc(F)c(C2=CCN(Cc3ccccc3)CC2)c(F)c1 [MMV687729] | 25% | 74% |
| CCCCOC(=O)Nc1cc2[nH]c(C3CCCCC3)nc2cc1N1CCCC1 [MMV687730] | 24% | 61% |

| Structure (SMILES) | Giardia (16 uM) Mean % inhibition [1] | Crypto (10 uM) Mean % inhibition [2] |
| --- | --- | --- |
| Cc1cc(OCC(=O)NCc2ccccc2)c2cc(Br)ccc2n1 [MMV687747] | 32% | 54% |
| c1ccc(C[C@@H]2CN(c3nccc(Oc4ccc(-n5ccnc5)cc4)n3)CCN2)cc1 [MMV687749] | 24% | 58% |
| c1ccc(Oc2ccc(-c3cc(C4CCOCC4)[nH]n3)cc2)cc1 [MMV687762] | X* (Mean or standard deviation are negative but not significantly different from the control to be a growth promoter) | 68% |
| Cc1cnc(N2CCN[C@@H](Cc3ccccc3)C2)nc1Oc1ccc(-n2ccnc2)cc1 [MMV687765] | 49% | 39% |
| CC1(C)OB(O)c2ccc(C3=NOC(c4cc(Cl)c(F)c(Cl)c4)(C(F)(F)F)C3)cc21 (centres unmarked) [MMV687775] | X* (Mean or standard deviation are negative but not significantly different from the control to be a growth promoter) | 56% |
| Cc1cc(C2=NOC(c3cc(Cl)c(F)c(Cl)c3)(C(F)(F)F)C2)ccc1C(=O)NCc1ccc2c(c1)C(C)(C)OB2O (centres unmarked) [MMV687776] | 27% | 83% |
| CC1(C)Cc2c(c(N3CCOCC3)nc3snc(Br)c23)CO1 [MMV687794] | 17% | X* (Mean or standard deviation are negative but not significantly different from the control to be a growth promoter) |
| NCCC(O)C(=O)N[C@@H]1C[C@H](N)[C@@H](OC2O[C@H](CN)[C@@H](O)[C@H](O)[C@H]2O)[C@H](O)C1OC1O[C@H](CO)[C@@H](O)[C@H](N)[C@H]1O (some centres unmarked) [MMV687796] | X* (Mean or standard deviation are negative but not significantly different from the control to be a growth promoter) | 82% |
| C[C@H]1COc2c(N3CCN(C)CC3)c(F)cc3c(=O)c(C(=O)O)cn1c23 [MMV687798] | 61% | 50% |
| CC[C@H](CO)NCCN[C@H](CC)CO [MMV687801] | X* (Mean or standard deviation are negative but not significantly different from the control to be a growth promoter) | 8% |
| CC(=O)NC[C@@H]1CN(c2ccc(N3CCOCC3)c(F)c2)C(=O)O1 [MMV687803] | X* (Mean or standard deviation are negative but not significantly different from the control to be a growth promoter) | X* (Mean or standard deviation are negative but not significantly different from the control to be a growth promoter) |
| O=C1O[C@@H](COc2ccon2)CN1c1cc(F)c(C2=CCN(Cc3ccccc3)CC2)c(F)c1 [MMV687813] | 32% | 40% |
| Cc1cccc(-c2nc(Nc3ccncn3)c3sccc3n2)n1 [MMV688122] | 33% | 93% |
| CCc1ccc(S(=O)(=O)Nc2cc(CN3CCN(CCC(C)C)CC3)ccc2C)cc1 [MMV688124] | 72% | X* (Mean or standard deviation are negative but not significantly different from the control to be a growth promoter) |
| CCCc1ccc(S(=O)(=O)Nc2ccc(CN3CCN(CC4CC4)CC3)cc2)cc1 [MMV688125] | 59% | 50% |
| c1ccc(Oc2ccc(-c3cncc(-c4ccc5[nH]ccc5c4)n3)cc2)cc1 [MMV688178] | X* (Mean or standard deviation are negative but not significantly different from the control to be a growth promoter) | 59% |
| NC(N)=Nc1ccc(-c2ccc(-c3ccc(N=C(N)N)cc3Cl)o2)c(Cl)c1 [MMV688179] | 11% | 56% |
| Cc1nn(C)c(C)c1NS(=O)(=O)c1c(Cl)cc(-c2ccnc(N3CCNCC3)c2)cc1Cl [MMV688180] | 21% | 66% |
| COc1ccc(-c2cnc3cnc(-c4cccc(OC(C)C)c4)cn23)cc1 [MMV688270] | 10% | X* (Mean or standard deviation are negative but not significantly different from the control to be a growth promoter) |
| N=C(N)Nc1ccc(-c2ccc(-c3ccc(N=C(N)N)c(Cl)c3)o2)cc1Cl [MMV688271] | 53% | 86% |
| Nc1ccc2ncnc(Nc3ccc(OCc4cccc(F)c4)c(Cl)c3)c2c1 [MMV688273] | 51% | X* (Mean or standard deviation are negative but not significantly different from the control to be a growth promoter) |
| O=C(CN1CCOCC1)Nc1ccc2ncnc(Nc3ccc(OCc4cccc(F)c4)c(Cl)c3)c2c1 [MMV688274] | 26% | 47% |
| CC1=Nc2ccc(Cl)cc2C(O)(c2ccc(C)cc2)N1CCN1CCCCC1 (centres unmarked) [MMV688279] | 65% | 43% |
